The test system of test [1] is Aspergillus fumigatus IFO 6344. The test can be described thus: Antifungal activity, paper disc growth inhibition zone (Table 4). In kind it is cell-based. The conditions noted are these: IFO6344, 48 h, medium A, 28° C., 2 days, disc soaked in 1000 μg/ml solution in methanol, read-out: Inhibition zone diameter. As to the method: (§1) The antifungal activities of the compounds (I) were evaluated by the following method: a sheet of filter paper disc (manufactured by Toyo Seisakusho, 8 mm in diameter) soaked in a 1000 μg/ml solution of a compound (I) in methanol was placed on an agar plate, which was incubated at 28° C. for 2 days, and the diameter of the growth inhibition zone around the filter paper disc was measured. The following culture media were used:
(§2) A: yeast nitrogen base agar medium

Test [2] relates to Aspergillus niger IFO 4066. The test is described as above. In kind it is cell-based. The note with it: IFO4066, 48 h, medium A, 28° C., 2 days, disc soaked in 1000 μg/ml solution in methanol, read-out: Inhibition zone diameter. The method, then:
as §1, §2

The test system of test [3] is Candida albicans (Ca--O) IFO 0583. Described as above. The conditions noted are these: IFO0583, 48 h, medium A, 28° C., 2 days, disc soaked in 1000 μg/ml solution in methanol, read-out: Inhibition zone diameter. In kind it is cell-based. The method, then: as §1, §2
The test system of test [4] is Candida albicans IFO 0583. The description is as above. In kind it is cell-based. The conditions noted are these: IFO0583, 48 h, medium A, 28° C., 2 days, disc soaked in 1000 μg/ml solution in methanol, read-out: Inhibition zone diameter. As to the method:
as §1, §2

Test [5] concerns Penicillium chrysogenum IFO 4626. The test is described as above. In kind it is cell-based. The conditions noted are these: IFO4626, 48 h, medium A, 28° C., 2 days, disc soaked in 1000 μg/ml solution in methanol, read-out: Inhibition zone diameter. The method, then:
as §1, §2

For test [6], the system named is Microsporum gypseum IFO 6075. The description is as above. In kind it is cell-based. The note with it: Nannizzia gypsea, IFO6075, 48 h; medium C (Sabouraud agar), 28° C., 2 days, disc soaked in 1000 μg/ml solution in methanol; read-out: Inhibition zone diameter. The method, then:
(§3) The antifungal activities of the compounds (I) were evaluated by the following method: a sheet of filter paper disc (manufactured by Toyo Seisakusho, 8 mm in diameter) soaked in a 1000 μg/ml solution of a compound (I) in methanol was placed on an agar plate, which was incubated at 28° C. for 2 days, and the diameter of the growth inhibition zone around the filter paper disc was measured.

Test [7] concerns Trichophyton mentagrophytes IFO 7522. The description is as above. In kind it is cell-based. The note with it: IFO7522, 48 h, medium C (Sabouraud agar), 28° C., 2 days, disc soaked in 1000 μg/ml solution in methanol, read-out: Inhibition zone diameter. As to the method:
as §3

The subject of test [8] is Trichophyton rubrum IFO 6467. The test is described as above. In kind it is cell-based. The note with it: IFO6467, 48 h, medium C (Sabouraud agar), 28° C., 2 days, disc soaked in 1000 μg/ml solution in methanol, read-out: Inhibition zone diameter. The method, then:
as §3

Test [9] concerns Candida albicans (IFO 0538). The test can be described thus: Antifungal activity against Candida albicans, paper disc growth inhibition zone (Tables 5 and 6). In kind it is cell-based. The note with it: 48 h, pH 7, B medium (yeast nitrogen base agar, pH 7.0), 28° C., 2 days incubation; read-out: Inhibition zone diameter. In a few lines:
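8 mm filter paper discs soaked in 1000 μg/ml compound in methanol were placed on yeast nitrogen base agar, either unadjusted or at pH 7.0. Plates were incubated at 28° C. for 2 days, and the diameter of the growth-inhibition zone was measured.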

Test [10] deals with Candida albicans. The test can be described thus: Infection-preventing effect in experimental infection in mice, Method 1 (Table 7-1). In kind it is in vivo, Crj:CDF1 mice. The conditions noted are these: Candida albicans, sc, 168 h, s.c., given 0 and 2 hours after infection; survival 7 days after infection; total dose; read-out: ED50. The method, then:
Method 1 (Table 7-1): To 5-week-old Crj:CDF1 mice the minimum lethal dose of Candida albicans was inoculated intravenously. The test drug was given twice 0 and 2 hours after infection. The effectiveness of the drug was expressed in ED50 values calculated by the Reed and Muench method from the survival rate 7 days after infection. The ED50 values were calculated based on the total dose given on the two occasions.

The structures appear in SMILES notation.

Consider `C[C@@H](SCc1ccncc1)[C@](O)(Cn1cncn1)c1ccc(F)cc1F` (relative stereo) [Compound 15], for which the zone of inhibition at 1000 µg/mL in [1] came out at 30 mm; in test [2] it was 29 mm; in test [3], 32 mm; in [4], 34 mm; in test [5], 23 mm; in test [6], 45 mm. Besides, the zone of inhibition at 1000 µg/mL in test [7] came to 50 mm; in test [8], 60 mm; in test [9] it was 25 mm. The ED50 in test [10] stood at 2.5 mg/kg.
`C[C@@H](Sc1nc2c(s1)CCC2)[C@](O)(Cn1cncn1)c1ccc(F)cc1F` (relative stereo) [Compound 12]: the zone of inhibition at 1000 µg/mL in test [1] is 38 mm; in test [2], 20 mm; in test [3] it was 41 mm; in [4], 42 mm; in test [5], 15 mm; in [6], 35 mm. Further, the results for the zone of inhibition at 1000 µg/mL in test [7], in test [8] and in test [9] were 32 mm, 35 mm and 25 mm, respectively. In addition, in test [10], the ED50 worked out at 2.5 mg/kg.

One may read the ED50 as the dose at which the effect has come halfway, by size or by number of responders.
